# Like-named read-outs stand apart in the source and are kept apart here.
# Experiments:
# [1] = tested on: U-87MG cells (glioblastoma cell line); experiment: cells; type: cell-based, human; conditions: for IC50: Homo sapiens, U-87 MG, SRB assay, 72 h exposure, read-out: Anticancer activity IC50 (nM) ± SD, U-87
# [2] = tested on: SKBR-3 (human breast cancer cell line); experiment: cells; type: cell-based; conditions: for IC50: SRB assay, 72 h exposure, read-out: Anticancer activity IC50 (nM) ± SD, SKBR-3
# [3] = tested on: SKBR-3, SKOV-3, PC-3, U-87 cells; experiment: SRB cytotoxicity assay, values summarised over cancer cell lines; type: cell-based, human
# [4] = tested on: PC-3 (human prostate cancer cell line); experiment: cells; type: cell-based; conditions: Homo sapiens; SRB assay, 72 h exposure; read-out: Anticancer activity IC50 (nM) ± SD, PC-3
# [5] = tested on: SKOV-3 (ovarian cancer cell line); experiment: cells; type: cell-based, human; conditions: Homo sapiens, SK-OV-3; SRB assay, 72 h exposure; read-out: Anticancer activity IC50 (nM) ± SD, SKOV-3
# in vitro = conditions: human, Toxicity IC50 (nM) ± SD, HDF, healthy cell line HDF, SRB assay, 72 h exposure
# [6] = tested on: Human Dermal Fibroblasts cell line (HDF); conditions: read-out: Toxicity IC50 (nM) ± SD, HDF; healthy cell line HDF, SRB assay, 72 h exposure
# [7] = Homo sapiens, SKBR-3, SKOV-3, PC-3, U-87, read-out: Anticancer IC50 over the studied cancer cell lines
SMILES,IC50 [1] [nM],"IC50 ([2]; Homo sapiens, SK-BR-3, 72 h) [nM]","IC50 [3, 7] [nM]","Selectivity indexes (SIs), all studied cancer cell lines ([3]; SI = IC50 HDF/IC50 cancer cell line)","IC50 ([3]; SKBR-3, SKOV-3, PC-3, U-87, read-out: Anticancer IC50 over the studied cancer cell lines) [nM]",IC50 [4] [nM],IC50 [5] [nM],IC50 (in vitro) [nM],"Selectivity index (SI), U-87 ([1]; SI = IC50 HDF/IC50 U-87)","IC50 ([3]; Homo sapiens, average over cancer cell lines, read-out: Average anticancer IC50) [nM]",IC50 [6] [nM],"Selectivity index (SI), SKBR-3 ([2]; SI = IC50 HDF/IC50 SKBR-3)",IC50 [2] [nM]
C/C=C/COc1cc2c(ccc1=O)-c1c(cc(OC)c(OC)c1OC)CC[C@@H]2NC(C)=O [Compound 3e],0.95 ± 0.01,0.94 ± 0.06,0.94 to 0.98,~2.2,~0.9,0.96 ± 0.01,0.98 ± 0.02,2.13 ± 0.06,,,,,
C=CCCOc1ccc2c(cc1=O)[C@@H](NC(C)=O)CCc1cc(OC)c(OC)c(OC)c1-2 [Compound 4h],1.07 ± 0.12,1.69 ± 0.05,,,,1.22 ± 0.03,1.27 ± 0.16,2.71 ± 0.08,~2.5,~1.5,,,
COc1cc2c(c(OC)c1OC)-c1ccc(OCc3cn(C4CC(n5cc(C)c(=O)[nH]c5=O)OC4CO)nn3)c(=O)cc1C(NC(C)=O)CC2 (stereo not shown) [Compound 6e],3.84 ± 0.02,3.02 ± 0.31,,,,3.5 ± 0.49,3.33 ± 0.11,5.18 ± 0.18,,,,,
COc1cc2c(c(OC)c1OC)-c1ccc(OCc3cn(CCCNC4=C5C[C@@H](C)C[C@H](OC)[C@H](O)[C@@H](C)/C=C(\C)[C@H](OC(N)=O)[C@@H](OC)/C=C\C=C(/C)C(=O)NC(=CC4=O)C5=O)nn3)c(=O)cc1[C@@H](NC(C)=O)CC2 [Compound 6f],17.3 ± 0.35,17.4 ± 0.64,,,,17.84 ± 0.16,15.3 ± 0.31,18 ± 0.24,,,,,
COc1cc2c(c(OC)c1OC)-c1ccc(=O)c(OCc3ccc(/C=C/c4ccc5ccccc5c4)cc3)cc1[C@@H](NC(C)=O)CC2 [Compound 7a],8.63 ± 0.14,8.02 ± 0.08,,,,8.61 ± 0.38,8.54 ± 0.71,8.19 ± 0.92,,,,,
COc1cc2c(c(OC)c1OC)-c1ccc(=O)c(OCc3ccc(/C=C/c4ccccn4)cc3)cc1[C@@H](NC(C)=O)CC2 [Compound 7b],2.43 ± 0.12,2.09 ± 0.33,2 to 2.5,,,2.45 ± 0.52,2.69 ± 0.02,4 to 5,,,5.11 ± 0.85,,
COc1cc2c(c(OC)c1OC)-c1ccc(=O)c(OCc3ccc(/C=C/c4cnc5ccccc5c4)cc3)cc1[C@@H](NC(C)=O)CC2 [Compound 7c],1.73 ± 0.09,1.51 ± 0.02,1.03 to 1.73,,,1.52 ± 0.01,1.03 ± 0.09,2.16 ± 0.6,,,,,
COc1cc2c(c(OC)c1OC)-c1ccc(=O)c(OCc3ccc(/C=C/c4ccc(CNC5=C6C[C@@H](C)C[C@H](OC)[C@H](O)[C@@H](C)/C=C(\C)[C@H](OC(N)=O)[C@@H](OC)/C=C\C=C(/C)C(=O)NC(=CC5=O)C6=O)cc4)cc3)cc1[C@@H](NC(C)=O)CC2 [Compound 7d],7.06 ± 0.44,7.22 ± 0.19,,,,7.49 ± 0.32,7.04 ± 0.15,9.04 ± 0.29,,,,,
COc1cc2c(c(OC)c1OC)-c1ccc(OCc3ccc(/C=C/c4ccc5ccccc5c4)cc3)c(=O)cc1[C@@H](NC(C)=O)CC2 [Compound 8a],6.44 ± 0.07,6.3 ± 0.09,,,,6.03 ± 0.26,6.49 ± 0.25,8.72 ± 0.48,,,,,
COc1cc2c(c(OC)c1OC)-c1ccc(OCc3ccc(/C=C/c4ccccn4)cc3)c(=O)cc1[C@@H](NC(C)=O)CC2 [Compound 8b],2.49 ± 0.05,2.77 ± 0.04,2 to 2.5,,,2.63 ± 0.77,2.84 ± 0.03,4 to 5,,,4.83 ± 0.27,,
COc1cc2c(c(OC)c1OC)-c1ccc(OCc3ccc(/C=C/c4cnc5ccccc5c4)cc3)c(=O)cc1[C@@H](NC(C)=O)CC2 [Compound 8c],1.65 ± 0.03,~1,1.03 to 1.73,,,1.47 ± 0.05,1.41 ± 0.02,2.77 ± 0.25,,,,~2.6,1.05 ± 0.06
COc1cc2c(c(OC)c1OC)-c1ccc(OCc3ccc(/C=C/c4ccc(CNC5=C6C[C@@H](C)C[C@H](OC)[C@H](O)[C@@H](C)/C=C(\C)[C@H](OC(N)=O)[C@@H](OC)/C=C\C=C(/C)C(=O)NC(=CC5=O)C6=O)cc4)cc3)c(=O)cc1[C@@H](NC(C)=O)CC2 [Compound 8d],10.8 ± 0.74,11.4 ± 0.15,,,,11 ± 0.44,10.52 ± 0.05,17.9 ± 1.04,,,,,

# Source: PMC8788354 (Journal of Enzyme Inhibition and Medicinal Chemistry, 2022)
